Data taken from patent publication US10336687B2, “Selected amide of Y-hydroxybutyric acid and uses thereof in the treatment of alcohol misuse” (priority 2015, dated 2019).
Read-outs that look alike come from different tables or passages of the source. Marks after values point to notes of the source that are not given here.

Legend:
[1] = tested on: Sardinian alcohol preferring (sP) rats; conditions: 2-bottle free choice model; cited from earlier work
[2] = tested on: Sardinian alcohol preferring (sP) rats; assay: Maintenance of alcohol intake, 2-bottle free choice regimen between alcohol (10% v/v) and water; assay type: in vivo, rat; conditions: acute oral administration
Source text: Anti-alcohol profile of ACGET61 in Sardinian alcohol preferring (sP) rats Sardinian alcohol preferring (sP) rats represents one of the few rat lines selectively bred worldwide for high ethanol preference and consumption (Colombo et al., 2006) and are utilized in multiple experimental procedures validated for the evaluation of different aspects of alcohol drinking. These experimental procedures include Maintenance of alcohol intake, and Operant self-administration of alcohol.
In this procedure sP rats were exposed to a 2-bottle free choice regimen between alcohol (10% v/v) and water. Under this condition, the animals can choose between a bottle containing the alcohol solution and a bottle containing water, and voluntarily consume about 6 g/kg/day of alcohol, with a preference for alcohol of about 90%.

[3] = tested on: Sardinian alcohol preferring (sP) rats; assay: Operant self-administration of alcohol, fixed ratio FR4; assay type: in vivo, rat
Source text: (§1) In these procedures sP rats were trained to self-administer alcohol or sucrose by pressing a lever, and the amount of work (lever pressing) requested to obtain alcohol, varied according with the aim of the single schedule of reinforcement, Fixed ratio (FR) or Progressive ratio (PR).
(§2) Sucrose solution (3% w/v) was systematically employed in these experiments as alternative reinforcer, in order to assess if test compounds exert a selective effect on the alcohol solution (15% v/v) self-administration.
(§3) In the FR the rat obtain alcohol or sucrose in response to four consecutive lever pressing (FR4), while in the PR the number of lever pressing necessary to obtain alcohol or sucrose increased progressively till the rat stop pressing the lever (Break point; BP). Each FR4 or PR/BP session lasted 30 minutes.

[4] = tested on: Sardinian alcohol preferring (sP) rats; assay: Operant self-administration of alcohol, progressive ratio / break point (PR/BP); assay type: in vivo, rat; conditions: for Effective Doses mg/kg: PR/BP model, sP rats
Source text: as §1, §2, §3

[5] = tested on: hippocampal slices; assay: Basal GABA and glutamate outflow in hippocampal slices; assay type: cell-based, rat; conditions: 10 and 100 μM
Protocol: (§4) Based on previous results obtained for GET 73, which influences the aminoacidergic neurotransmission in the rat hippocampus, probably through a complex modulation of the metabotropic glutamate receptors subtype 5 (mGluR5) (Beggiato et al., 2013; Ferraro et al., 2011, 2013) the positional isomer ACGET61 was evaluated in vitro in hippocampal slices, by measuring GABA and glutamate levels in different experimental conditions.

[6] = tested on: hippocampal slices; assay: K+-evoked GABA and glutamate outflow in KCl stimulated hippocampal slices; assay type: cell-based, rat
Protocol: as §4
Additional studies aimed at exploring the effect of ACGET61 (10 pM-10 μM) in KCl stimulated hippocampal slices were carried out.

[7] = target: T1, mGluR5 (Rattus norvegicus, UniProt P31424); assay: Increase in K+-evoked glutamate outflow induced by the mGluR5 receptor agonist CHPG in hippocampal slices; assay type: cell-based; conditions: CHPG 100 μM
T1 construct: from tissue; host or cells: hippocampal slices
T1 sequence (P31424 21-1203): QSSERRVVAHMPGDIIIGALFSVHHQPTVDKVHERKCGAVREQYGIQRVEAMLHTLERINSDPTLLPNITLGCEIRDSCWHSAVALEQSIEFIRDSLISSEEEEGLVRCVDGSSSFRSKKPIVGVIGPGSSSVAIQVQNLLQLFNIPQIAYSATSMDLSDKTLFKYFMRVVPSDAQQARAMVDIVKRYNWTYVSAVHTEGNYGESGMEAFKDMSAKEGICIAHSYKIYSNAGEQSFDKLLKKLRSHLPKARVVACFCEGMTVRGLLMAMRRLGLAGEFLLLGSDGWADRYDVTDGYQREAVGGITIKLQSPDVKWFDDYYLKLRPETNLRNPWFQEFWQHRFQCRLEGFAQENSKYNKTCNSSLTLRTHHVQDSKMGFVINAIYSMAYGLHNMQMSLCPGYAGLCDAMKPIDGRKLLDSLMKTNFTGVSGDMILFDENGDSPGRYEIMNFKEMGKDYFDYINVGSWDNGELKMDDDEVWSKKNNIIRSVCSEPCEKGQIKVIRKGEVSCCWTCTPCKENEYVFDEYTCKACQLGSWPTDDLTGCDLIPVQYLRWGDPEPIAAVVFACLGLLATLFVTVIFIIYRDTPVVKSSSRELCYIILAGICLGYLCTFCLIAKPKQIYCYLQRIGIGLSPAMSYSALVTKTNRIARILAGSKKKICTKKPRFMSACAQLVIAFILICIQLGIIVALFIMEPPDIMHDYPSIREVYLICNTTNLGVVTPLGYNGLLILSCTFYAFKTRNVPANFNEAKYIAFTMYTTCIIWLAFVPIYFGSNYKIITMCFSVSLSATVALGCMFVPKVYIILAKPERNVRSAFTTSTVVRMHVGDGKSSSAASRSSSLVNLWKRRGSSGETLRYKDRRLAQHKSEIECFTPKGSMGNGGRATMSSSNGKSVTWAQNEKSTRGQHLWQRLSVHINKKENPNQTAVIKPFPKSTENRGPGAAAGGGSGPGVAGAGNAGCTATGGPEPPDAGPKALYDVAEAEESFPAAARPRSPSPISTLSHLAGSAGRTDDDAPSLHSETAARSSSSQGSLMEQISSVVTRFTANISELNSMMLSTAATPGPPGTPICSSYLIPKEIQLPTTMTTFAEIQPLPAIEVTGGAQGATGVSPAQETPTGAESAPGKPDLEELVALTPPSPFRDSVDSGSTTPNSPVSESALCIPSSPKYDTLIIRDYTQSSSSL
Protocol: as §4
The interaction of ACGET61 with the mGluR5 agonist CHPG was explored in KCl stimulated hippocampal slices. […] Specifically, FIG. 5—KCl stimulated Hippocampal slices—K^+ evoked glutamate outflow. The effect of ACGET61 300 pM on the increase in glutamate outflow induced by CHPG 100 μM. ** p<0.01 vs Control; ^∘ p<0.05 vs ACGET61+CHPG.

[8] = tested on: primary cultures of rat hippocampal neurons; assay type: cell-based; conditions: for Minimum effective concentration for neuroprotective effects: hippocampal neurons chronically exposed to ethanol, cell viability and ROS production
Source text: (§5) The neurotoxic effects of alcohol have been well documented, both in animals and humans, and the hippocampus represents a brain area particular sensitive to the detrimental effects of alcohol. Different preclinical models have been employed for studying the neurotoxic effects of alcohol. One of these models consists in exposing organotypic hippocampal cultures to alcohol, which exerts various effects, including a reduction in cell viability, and an increase in reactive oxygen species (ROS).
(§6) Briefly, primary cultures of rat hippocampal neurons were chronically exposed to ethanol (75 mM; 4 days) and the neuroprotective effects of ACGET61 were assessed by evaluating cell viability (MTT assay), and reactive oxygen species production (rhodamine 123 fluorescence).

[9] = tested on: primary cultures of rat hippocampal neurons; assay type: cell-based
Source text: as §5, §6
Ethanol exposure induced a significant increase in the ROS production (p<0.001), measured by the fluorescence emission of rhodamine 123.

[10] = target: T1, mGluR5; conditions: GET73, same model; cited from earlier work
[11] = cited from earlier work
[12] = FR4 model, sP rats, GET 73 tested up to 50
[13] = 0.01-10 μM, cultures not exposed to ethanol

## O=C(O)CCCO [GHB, gamma-hydroxybutyric acid]
[1]
  Alcohol intake of sP rats: reduced

## O=C1CC[C@@]2(O)[C@H]3Cc4ccc(O)c5c4[C@@]2(CCN3CC2CC2)[C@H]1O5 [naltrexone]
[1]
  Alcohol intake of sP rats: reduced

## COCCCC(=O)NCc1ccccc1C(F)(F)F [ACGET61, N-[(2-trifluoromethyl)benzyl]-4-methoxybutyramide]
[2]; ACGET61, Maintenance model, sP rats
  Duration of effect: 24 h
[2]; 25 to 100 mg/kg
  Effect on water and food intake: without affecting water and food intake
[3]; 100 mg/kg, 30 min session, p<0.05 vs vehicle
  Effect on FR4 operant self-administration of alcohol (lever responses, alcohol and sucrose intake): selective reducing effect on the reinforcing properties of alcohol
[3]; [12]
  Effective Doses: 100 mg/kg
[4]; 50 and 100 mg/kg, PR, 30 min session
  Number of lever pressing and break point for alcohol: reduced
[4]; 50 and 100 mg/kg, PR, sucrose 3% w/v
  Response for sucrose: able to reduce also the response for sucrose
[4]; for alcohol and sucrose
  Effective Doses mg/kg: 50-100 * mg/kg
[5]
  Effect on basal release of GABA and glutamate: No effects
[6]; 100, 300, and 500 pM
  K+-evoked glutamate outflow: modest non significant reduction
[6]; concentrations between 10 nM and 10 μM
  Effect on K+-evoked GABA and glutamate outflow: did not exert overt effects
[6]; highest concentration (10 μM)
  K+-evoked GABA outflow: significant decrease
[7]; ACGET61 300 pM
  Effect on the increase in K+-evoked glutamate outflow exerted by CHPG: able to counteract, at least in part
[7]; KCl stimulated slices
  Concentration inhibiting CHPG-induced increase of glutamate in hippocampal slices: 300 pM
[8]; [13]
  Cellular viability, compound by itself: did not affect cellular viability
[8]; 0.1, 1, and 10 μM added 1 hour before and during ethanol 75 mM, 4 days, p<0.05 vs ethanol
  Cell viability in ethanol exposed cultures: prevented the ethanol-induced damage
[8]
  Minimum effective concentration for neuroprotective effects: 0.1 µM
[9]; [13]
  ROS production, compound by itself: did not affect ROS production
[9]; 0.1, 1, and 10 μM added 1 h before and during ethanol 75 mM, 4 days
  ROS production in ethanol exposed cultures: prevented the ethanol-induced increase of ROS production

## COCCCC(=O)NCc1ccc(C(F)(F)F)cc1 [GET 73, 4-methoxy-N-[[4-(trifluoromethyl)phenyl]methyl]-butanamide, reference compound]
[3]; [12]
  Effective Doses mg/kg: No effect
[3]; GET73, same model
  Effect in FR4 operant self-administration: did not demonstrate any effects
[4]; GET73, same model
  Effect on PR operant self-administration of alcohol: did not demonstrate any effects
[4]; PR, 50 mg/kg
  Sucrose intake: significant reduction
[4]; limited to sucrose
  Effective Doses mg/kg: 50 # mg/kg
[8]
  Minimum effective concentration for neuroprotective effects: 1 µM
[10]
  Concentration inhibiting CHPG-induced increase of glutamate in hippocampal slices: 500 nM

## NCC(CC(=O)O)c1ccc(Cl)cc1 (stereo not shown) [baclofen]
[1]
  Alcohol intake of sP rats: reduced

## O=C(O)CCCO [sodium oxybate]
[11]; after oral administration
  Time to peak plasma concentration: 30 to 45 min
[11]; in vivo
  Bioavailability: about 30%
  Half-life: about 30 minutes
